# Where “and” joins values, the source holds several entries; their conditions need not be identical. Identical values can stand only once.
# What was measured:
# Type in all cases: in vivo, Tomato (variety: Rutgers)
# [1] = test system: tomato leaf transpiration; experiment: Tomato leaf transpiration inhibition after foliar spray (LI-1600 porometer); conditions: for Transpiration rate (% of control), 1 day after treatment: day 1; for Transpiration rate (% of control), 2 days after treatment: day 2; for Transpiration rate (% of control), 3 days after treatment: day 3; for Transpiration rate (% of control), 4 days after treatment: day 4; for Transpiration rate (% of control), 7 days after treatment: day 7; for ABA dose to achieve 50% inhibition of transpiration: from linear regression of 3-day average transpiration rate on log dose
# Method: (§1) Preparation of plant specimens for use in the treatment studies of the EXAMPLES that follow was carried out as follows. Tomato (variety: Rutgers) seeds were sown in an 18-cell flat filled with Promix PGX (available from Premier Horticulture Inc., Quakertown Pa.) and grown for 3 weeks to allow for germination and initial growth. Plants were then transplanted into pots (18 cm in diameter and 18 cm in height), filled with Promix BX (available from Premier Horticulture Inc., Quakertown Pa.), and grown for one or two more weeks before treatment, depending on temperature and available light. Plants received daily irrigation and weekly fertilizer (1 g/L all purpose fertilizer 20-20-20, available from The Scotts Company, Marysville, Ohio).
# (§2) All treatment solutions were made up with distilled water. The (S)-(+)-abscisic acid (95% active ingredient) is available from Lomon BioTechnology Co., Ltd. (Shichuan, China). The prior art aqueous solution composition of the ammonium salt of (S)-(+)-abscisic acid as prepared in Example 11 above was used as a positive treatment control for most of the studies.
# (§3) All experiments were conducted using a randomized complete block experimental design. Solutions of (S)-(+)-abscisic acid and blank treatments (plain water) were applied by spray to the aerial parts of the tomato plants at the rate of 24 mL per 6 plants. Plants were then placed in a transparent chamber with humidity controlled within the range of 40 to 60% relative humidity. Leaf transpiration rates were measured at 1, 2, 3, 4 and 7 days after treatment. Measurements were conducted using a LI-1600 Steady State Porometer (LI-Cor, Lincoln, Nebr.). Each day the transpiration rate of the plants of each treatment group was normalized to a percentage of the transpiration rate of untreated plants (plants sprayed with water only) in order to control for day-to-day variability in plant status caused by changes of environmental conditions such as light intensity and temperature. Data for each plant was also averaged over a 3-day period to balance the short term and long term effect of (S)-(+)-abscisic acid on tomato leaf transpiration as well as to reduce experimental variability.
# The regression equation of each (S)-(+)-abscisic acid salt as well as abscisic acid concentrations for 50% inhibition of transpiration were calculated. The relative potency of two ABA salts is the reciprocal of the ratio of (S)-(+)-abscisic acid concentration required for 50% transpiration inhibition for each composition.
# tomato plant height = experiment: Tomato plant height 7 days after treatment (growth suppression); conditions: 250 ppm (1 mg) (S)-(+)-abscisic acid, foliar spray; additives as in label
# Method: as §1, §2
# as §3, with “variability. It is important to note that no phytotoxicity was observed on any of the plants treated with the compositions of the present invention.” for “variability.”
# In this experiment, the fresh weights of the aerial parts of the tomato plants and their heights were also measured at the end of the experiment, 7 days after treatments were applied, in order to assess the relative growth suppressing activity of the compositions.
# [2] = test system: tomato shoot fresh weight; experiment: Tomato shoot fresh weight 7 days after treatment (growth suppression); conditions: foliar spray
# Method: as §1, §2, §3
# In this experiment, the fresh weights of the aerial parts of the tomato plants were also measured at the end of the experiment, 7 days after treatments were applied, in order to assess the relative growth suppressing activity of the compositions.
# [3] = 462 ppm ChI, no (S)-(+)-abscisic acid
# [4] = (S)-(+)-abscisic acid dose 0.3 mg, foliar spray
# [5] = (S)-(+)-abscisic acid dose 1 mg, foliar spray
# [6] = (S)-(+)-abscisic acid dose 3 mg, foliar spray
# [7] = (S)-(+)-abscisic acid dose 10 mg, foliar spray
# [8] = foliar spray, 250 ppm (S)-(+)-abscisic acid (1 mg), additives as in label
# [9] = reciprocal of ratio of doses for 50% transpiration inhibition
# [10] = 332 ppm KI, no (S)-(+)-abscisic acid
Structure (SMILES),"Transpiration rate (% of control), Average of 3 days after treatment [1, 4]","Transpiration rate (% of control), Average of 3 days after treatment [1, 5]","Transpiration rate (% of control), Average of 3 days after treatment [1, 6]","Transpiration rate (% of control), Average of 3 days after treatment [1, 7]","Transpiration rate (% of control), 7-Day Average [1, 8]","Transpiration rate (% of control), 1 day after treatment [1, 8]","Transpiration rate (% of control), 2 days after treatment [1, 8]","Transpiration rate (% of control), 3 days after treatment [1, 8]","Transpiration rate (% of control), 4 days after treatment [1, 8]","Transpiration rate (% of control), 7 days after treatment [1, 8]",ABA dose to achieve 50% inhibition of transpiration [1],further results
"C[N+](C)(C)CCO.[I-] [ChI, choline iodide, reference compound]",–,–,–,–,–,–,–,–,–,–,–,"Transpiration rate (% of control), 7-Day Average [1, 3]: 100.6 % of control; Transpiration rate (% of control), 1 day after treatment [1, 3]: 96.4 % of control; Transpiration rate (% of control), 2 days after treatment [1, 3]: 104.2 % of control; Transpiration rate (% of control), 3 days after treatment [1, 3]: 104.5 % of control; Transpiration rate (% of control), 4 days after treatment [1, 3]: 98.9 % of control; Transpiration rate (% of control), 7 days after treatment [1, 3]: 98.9 % of control"
"CC1=CC(=O)CC(C)(C)[C@@]1(O)/C=C/C(C)=C\C(=O)[O-].C[N+](C)(C)C [Example 3, Tetramethylammonium Salt of (S)-(+)-Abscisic Acid]",79 % of control,65 % of control,52 % of control,38 % of control,73.7 % of control,59.1 % of control,63.6 % of control,71.9 % of control,78.6 % of control,95.4 % of control,3.59 mg,"Relative potency compared to the trimethylamine salt composition of Comparative Example 13 [1, 9]: 4.6 times"
"CC1=CC(=O)CC(C)(C)[C@@]1(O)/C=C/C(C)=C\C(=O)O.CN(C)C(=N)N(C)C [Example 6, Tetramethylguanidinium Salt of (S)-(+)-Abscisic Acid]",71 % of control,61 % of control,42 % of control,31 % of control,70.8 % of control and 76.2 % of control and 78.7 % of control,51.0 % of control and 51.9 % of control and 47.8 % of control,61.3 % of control and 64.3 % of control and 69.0 % of control,71.2 % of control and 75.6 % of control and 84.5 % of control,79.9 % of control and 89.9 % of control and 93.2 % of control,90.3 % of control and 99.1 % of control and 99.0 % of control,1.93 mg,Plant height (cm) 7 days after treatment (tomato plant height): 30.1 cm
"CC1=CC(=O)CC(C)(C)[C@@]1(O)/C=C/C(C)=C\C(=O)[O-].[K+] [Example 12, Potassium Salt of (S)-(+)-Abscisic Acid, reference compound]",76 % of control,66 % of control,55 % of control,44 % of control,77.0 % of control,55.0 % of control,64.9 % of control,76.9 % of control,90.9 % of control,97.3 % of control,5.28 mg,"Relative potency compared to the ammonium salt composition of Comparative Example 11 [1, 9]: 0.98 times"
"CC1=CC(=O)CC(C)(C)[C@@]1(O)/C=C/C(C)=C\C(=O)O.CN(C)C [Example 13, Trimethylamine Salt of (S)-(+)-Abscisic Acid, reference compound]",84 % of control,74 % of control,65 % of control,54 % of control,81.2 % of control,65.5 % of control,73.6 % of control,81.7 % of control,88.2 % of control,97.0 % of control,16.59 mg,–
"CC1=CC(=O)CC(C)(C)[C@@]1(O)/C=C/C(C)=C\C(=O)O.CCCCN(CCCC)CCCC [Example 14, Tributylamine Salt of (S)-(+)-Abscisic Acid, reference compound]",82 % of control,70 % of control,53 % of control,40 % of control,79.5 % of control,59.7 % of control,71.3 % of control,78.8 % of control,87.4 % of control,100.3 % of control,4.34 mg,"Fresh weight (g) 7 days after treatment ([2]; 75 ppm (0.3 mg) (S)-(+)-abscisic acid): 15.7 g; Fresh weight (g) 7 days after treatment ([2]; 250 ppm (1 mg) (S)-(+)-abscisic acid, additives as in label): 15.3 g; Fresh weight (g) 7 days after treatment ([2]; 750 ppm (3 mg) (S)-(+)-abscisic acid): 15.0 g; Fresh weight (g) 7 days after treatment ([2]; 2500 ppm (10 mg) (S)-(+)-abscisic acid): 13.9 g"
"[I-].[K+] [KI, potassium iodide, reference compound]",–,–,–,–,–,–,–,–,–,–,–,"Transpiration rate (% of control), 4 Day Average ([1]; 332 ppm KI, no (S)-(+)-abscisic acid, 4-day average): 100.7 % of control; Transpiration rate (% of control), 1 day after treatment [1, 10]: 100.2 % of control; Transpiration rate (% of control), 2 days after treatment [1, 10]: 100.5 % of control; Transpiration rate (% of control), 3 days after treatment [1, 10]: 99.6 % of control; Transpiration rate (% of control), 4 days after treatment [1, 10]: 102.6 % of control"
